From patent publication US10232043B2, “Photoactivated molecules for light-induced modulation of the activity of electrically excitable cells and methods of using the same” (UNIVERSITY OF SOUTHERN CALIFORNIA, priority 2015, dated 2019)
“Also recorded” adds a separate entry of the source.

Columns and labels:
[1] = tested on: INS, HEK293T and chromaffin cells; experiment: Imaging RubpyC17 in live cells (membrane integration); assay type: cell-based, rat, human, mouse
Experimental: Cells were imaged at 1-3 days after plating. The glass-bottomed chambers with adherent cells were washed twice with PBS and then filled with standard extracellular solution consisting of 140 mM NaCl, 2.8 mM KCl: 10 mM HEPES, 1 mM MgCl2, 2 mM CaCl2, and 10 mM glucose, pH adjusted to 7.2-7.4 and osmolarity adjusted to 290-310 mOsm. The chamber was then mounted on an Olympus IX70 inverted microscope stage for imaging, using a Cascade 512B EMCCD camera, operated by Metamorph software. Initial imaging was done with, cells in extracellular solution without RubpyC17, first under brightfield to evaluate cell health and morphology, then under widefield argon ion laser illumination at 488 nm (Coherent, Innova 90-5, Santa Clara, Calif.), to evaluate autofluorescence. Next, the extracellular solution was removed and replaced with extracellular solution containing the RubpyC17 compound (10 μM in <0.01% DMSO, final concentrations). Cell images were then acquired with illumination at 488 nm (collected with a long-pass red emission filter). For electrophysiological experiments, RubpyC17 compound was added to the extracellular solution (2-10 μM in <0.01% DMSO, final concentrations as indicated) and cells were incubated for 1.5-45 min, as indicated, then washed with extracellular solution without RubpyC17. Some chromaffin cells were also exposed continuously to 490-900 nM RubpyC17-containing extracellular solution.
Illustrated here are rat insulinoma INS cells (see FIG. 17C, top), human embryonic kidney (HEK293T) cells (see FIG. 17C, middle), and primary cultured mouse chromaffin cells (see FIG. 17C, bottom). […] All cell types preserved morphology for at least 10 minutes. […] One embodiment of the possible light-induced electron transfer is depicted in FIG. 2.

[2] = tested on: endogenous ion channels of chromaffin cells; experiment: Voltage-clamp current-voltage relationship and steady-state activation; assay type: cell-based, mouse; conditions: before and during light illumination
Description: (§1) FIGS. 21A-21H depict data from various experiments related to characteristics of RubpyC17-loaded cells. […] Inset images shown to the right of trace confirmed proper integration of RubpyC17 in patched cells. FIGS. 21C-21E show the light-induced action potential firing in chromaffin cells was not due to biophysical changes in voltage-gated ion channels as there were no significant changes in current-voltage relationships (21C-21D) nor in steady-state activation curve (21E) in RubpyC17-loaded chromaffin cells before (open circle) or during (open circle) light illumination. […] Peak inward currents from each stimulation jump were plotted against corresponding stimulating voltages (n=6). […] Data from representative cell is shown (n=5). […] Currents resulting from capacitor-like behavior of chromaffin cell membranes during hyperpolarizing jumps to −85 mV from a resting membrane potential of −80 mV were recorded 5 min following giga-seal formation for amphoterecin B (bottom trace) or 10 min following giga-seal formation for RubpyC17 (top trace).
To examine whether light-activated RubpyC17 can directly interact and open or block endogenous ion channels, HEK293T cells were preincubated with RubpyC17, and patch-clamped in a voltage-clamp configuration. […]

chromaffin cells = experiment: Cell-attached patch test for membrane perforation; assay type: cell-based, mouse; conditions: in patch pipette, RubpyC17 18 μM, 10 min, amphotericin B within 5 min
Description: as §1
Finally, to test whether illumination of RubpyC17 incorporated in cell membranes causes nonspecific membrane poration or other damage, 18 μM RubpyC17 was loaded inside a patch pipette and attached to a cell (gigaseal formation) in the cell-attached configuration. This is the same configuration used routinely for perforated-patch recording. […]

[3] = tested on: whole-mount retinas from RCS rats; experiment: Whole-mount retina multi-electrode recording; assay type: cell-based, rat; conditions: photoreceptor-degenerate retina, 100 micromolar for 30 minutes, 480 nm
Description: FIG. 26 illustrates data from whole-mount retinas from RCS rats. […] Each bin represents the frequency of spikes for 1 second. Before Rubpy treatment (14A), illumination at 480 nm elicited minimal change in spike frequency. […] Downward arrows mark the time of 100 ms (1st) and 1 second (2nd to fourth) light stimuli
The retina will be freshly dissected from Royal College of Surgeons (RCS) rats (9 months or older to ensure total loss of photoreceptors). The whole-mount retina will then be placed onto a multi-electrode array with the ganglion cell layer side facing the electrodes and is held down on the array using a lightly weighted porous membrane. Extracellular field potentials are recorded from 15 or 75 μm diameter electrodes using an MEA1060-Up amplifier and MC Rack software (Multi-Channel Systems). The activity of the retinal in response to illumination is monitored before and after PVN incubation. The retina is continuously perfused with oxygenated (95% O2, 5% CO2), heated (32C) Ames' Medium for baseline activity. The retina is then perfused with Ames' Medium containing PVN for 30 min to 1 hr, followed by 10 min wash with regular Ames' Medium before recording in Ames' Medium with 5-10 mM ascorbate. The retina will be illuminated by white LED light through a bandpass excitation filter (460-500 nm) with durations of 100 μs, 1 ms, 10 ms, 100 ms, […] and 30 s. […]

RCS rats [4] = experiment: Pupillary light response after eye injection; assay type: in vivo, rat
Description: FIG. 28 illustrates the pupillary light response in RCS rats.
(§2) This finding was reproduced in 3 of 3 RCS rats injected with Rubpy-C17, and in 2 of 2 control (sham injection) RCS rats.

RCS rats [5] = experiment: Histology of the retina after injection; assay type: in vivo, rat; conditions: 3 days after injection, preliminary
Description: as §2

SMILES: CCCCCCCCCCCCCCCCCc1ccnc(-c2cc(C)ccn2)c1.F[P-](F)(F)(F)(F)F.F[P-](F)(F)(F)(F)F.[Ru+2].c1ccc(-c2ccccn2)nc1.c1ccc(-c2ccccn2)nc1 [RubpyC17, [Ru(bpy)2(bpy-C17)](PF6)2]
- time for which all cell types preserved morphology ([1]; 10 μM RubpyC17): at least 10 minutes
- incorporation into cell membranes (plasma membrane-localized luminescence) ([1]; 10 μM in bath, INS, HEK293T, mouse chromaffin cells): rapidly and stably incorporates into mammalian cell membranes
- membrane luminescence after RubpyC17 removal from the bath solution ([1]; at 10 minutes after removal): still observed
- biophysical properties of endogenous ion channels [2]: does not alter the biophysical properties of endogenous ion channels
- capacitive charging transient (membrane perforation) (chromaffin cells): an increase in the capacitive charging transient was not detected; also recorded: did not perforate chromaffin cells
- light-induced action potential firing / spike frequency ([3]; listed as Rubpy): spike frequency increased
- light-induced action potential firing / spike frequency ([3]; listed as Rubpy-C17): respond to illumination by firing action potentials
- pupillary light reflex in injected eye (RCS rats [4]; RCS rat, not in non-injected eye): vigorous pupillary light reflex was observed; also recorded: pupil constricts
- time of pupillary light reflex (RCS rats [4]; injected eye): < 3 s
- retinal histology / pathology (RCS rats [5]): no evidence of retinal cell death or white blood cell infiltrates; also recorded: absence of obvious signs of deleterious effects
